For assay [1], the target named is Xenopus laevis TMEM16A. As to conditions: +80 mV, ref Reyes et al. (2015); cited from earlier work.
The target of assay [2] is T1, Mouse TMEM16A (Mus musculus, UniProt Q8BHY3).
T1 construct: expressed in transfected cells; host or cells: HEK-293T
T1 sequence (Q8BHY3 1-960): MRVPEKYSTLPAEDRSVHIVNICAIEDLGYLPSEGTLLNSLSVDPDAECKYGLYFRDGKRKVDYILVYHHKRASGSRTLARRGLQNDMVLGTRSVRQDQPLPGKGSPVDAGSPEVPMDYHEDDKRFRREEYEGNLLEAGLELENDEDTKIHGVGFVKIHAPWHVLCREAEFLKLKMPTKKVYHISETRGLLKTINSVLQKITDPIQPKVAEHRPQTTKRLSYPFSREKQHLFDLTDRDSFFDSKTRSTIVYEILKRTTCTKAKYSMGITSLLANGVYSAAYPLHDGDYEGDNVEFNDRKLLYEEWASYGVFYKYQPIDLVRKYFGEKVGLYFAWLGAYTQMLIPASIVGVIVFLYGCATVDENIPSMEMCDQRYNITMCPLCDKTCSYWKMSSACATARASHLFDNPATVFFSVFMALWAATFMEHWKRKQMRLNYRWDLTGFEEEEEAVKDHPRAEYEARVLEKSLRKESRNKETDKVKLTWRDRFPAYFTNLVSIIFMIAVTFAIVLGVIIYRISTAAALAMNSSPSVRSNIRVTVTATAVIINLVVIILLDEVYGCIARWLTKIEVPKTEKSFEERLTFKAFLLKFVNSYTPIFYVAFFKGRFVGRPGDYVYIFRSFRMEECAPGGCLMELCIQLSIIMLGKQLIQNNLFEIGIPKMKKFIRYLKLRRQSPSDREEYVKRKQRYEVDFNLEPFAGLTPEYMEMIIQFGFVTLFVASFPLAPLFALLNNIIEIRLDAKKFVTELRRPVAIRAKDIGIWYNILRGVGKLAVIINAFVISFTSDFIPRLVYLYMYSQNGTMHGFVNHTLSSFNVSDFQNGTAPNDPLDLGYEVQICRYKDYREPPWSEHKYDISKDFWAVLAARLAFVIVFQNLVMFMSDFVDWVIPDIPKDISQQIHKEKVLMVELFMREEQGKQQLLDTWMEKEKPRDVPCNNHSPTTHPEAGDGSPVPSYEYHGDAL
The experiment in a line: Non-stationary noise analysis of whole-cell TMEM16A tail currents. The assay is classed as cell-based. As to conditions: −70 mV tail pulse, 300 nM [Ca2+]i; for P o: control 0.09 ± 0.02; for single channel current i: control 0.22 ± 0.01. The procedure:
(§1) For non‐stationary noise analysis (Heinemann and Conti, 1992; Tammaro and Ashcroft, 2007), 80–200 identical pulses to a test potential of −70 mV (filtered at 10 kHz and sampled at 50 kHz) were applied, and the mean response, I, was calculated. The variance, σ ^2, was computed from the average squared difference of consecutive traces. Background variance and current at 0 mV were subtracted, and the variance–mean plot was fit by (4) σ^2=iI−I^2/N,
(§2) with the single channel current, i, and the number of channels, N, as free parameters.
Non‐stationary noise analysis was performed in the presence of 300 nM [Ca^2+]i during a tail pulse to −70 mV (Figure 8). In the absence of A9C, the i of TMEM16A was 0.22 ± 0.01 pA (n = 9). In the presence of 100 and 1000 μM [A9C]ext, i was 0.22 ± 0.01 pA (n = 9) and 0.23 ± 0.02 pA (n = 9) respectively. […] In the absence of A9C, the P o of TMEM16A was 0.09 ± 0.02 (n = 9) while in the presence of 100 and 1000 μM [A9C]ext, the P o was 0.41 ± 0.06 (n = 9) and 0.62 ± 0.06 (n = 9) respectively. Thus, extracellular A9C increased TMEM16A channel P o at a fixed V m and [Ca^2+]i.

For assay [3], the target named is T1, Mouse TMEM16A. The experiment in a line: Stationary noise analysis of whole-cell TMEM16A currents. The assay is classed as cell-based. As to conditions: +70 mV, 12.5 μM [Ca2+]i; for P o: control 0.78 ± 0.02. As for the experimental part:
as §1, §2
TMEM16A channels are almost instantaneously activated by changes in V m in the presence of high [Ca^2+]i (12.5 μM) (e.g. Adomaviciene et al., 2013). The lack of slow time‐dependent changes in current amplitude under these conditions makes non‐stationary noise analysis unfeasible. Thus, for experiments carried out in high [Ca^2+]i, stationary noise analysis was performed instead. In the absence or presence of a fixed [A9C]ext, 10 tracts (each 600 ms in duration) of stationary currents measured at +70 mV were low‐pass filtered at 10 kHz and sampled at 50 kHz. For each tract of current, the variance and mean were calculated. The variance–mean plots obtained in the absence and presence of various [A9C]ext were fitted simultaneously with Equation (4).
Stationary noise analysis was used to determine if A9C block manifests as a change in i and/or P o of TMEM16A. Experiments were conducted in the presence of 12.5 μM [Ca^2+]i to enable examination of the effect of A9C block in the absence of A9C‐mediated activation. Mean current and variance were measured in tracts of stationary currents recorded in the absence or presence of different [A9C]ext.
With this assumption in mind, the variance–mean plots were fitted with Equation (4) (Figure 4C). The fits yielded a single value of i of 0.27 ± 0.04 pA (n = 5). P o values arising from the fits were 0.78 ± 0.02 for control (n = 5), 0.30 ± 0.08 at 100 μM [A9C]ext (n = 5) and 0.04 ± 0.01 at 1000 μM [A9C]ext (n = 5) (Figure 4D).

Assay [4] concerns the target T1, Mouse TMEM16A. Description: Concentration jump in excised inside-out or outside-out patches, 300 nM [Ca2+]i. The assay is classed as cell-based. As to conditions: +70 mV. The procedure:
TMEM16A currents were measured with the whole‐cell or inside‐out patch configuration of the patch‐clamp technique as detailed in the Supporting Information. The exchange of solutions was achieved by using a local perfusion system consisting of eight tubes of 1.2 mm diameter in which the tip of the patch pipette was inserted. In some experiments, ultra‐rapid (<50 ms) changes in A9C concentration ([A9C]) (‘concentration jumps’) were achieved using a computer‐controlled perfusion system (Warner Instruments, Hamden, CT, USA).
To examine if intracellular A9C produced an activating effect on TMEM16A currents, concentration jump experiments were performed in the inside‐out configuration of the patch‐clamp technique, with A9C applied intracellularly and in the presence of 300 nM [Ca^2+]i. […] For example, I a/I 0 in the presence of 3000 μM intracellular A9C during inside‐out patches was 1.3 ± 0.1 (n = 5), while extracellular A9C produced a I a/I 0 of 27 ± 4 (n = 5) in outside‐out patches (Figure 6).

The structures appear in SMILES notation.

Take `O=C(O)c1c2ccccc2cc2ccccc12` [A9C, Anthracene‐9‐carboxylic acid]: in assay [1], the Ki is approximately 90 µM. In addition, the P o is reported as 0.41 ± 0.06 in assay [2] (100 μM [A9C]ext), 0.62 ± 0.06 in assay [2] (1000 μM [A9C]ext), 0.30 ± 0.08 in assay [3] (100 μM [A9C]ext) and 0.04 ± 0.01 in assay [3] (1000 μM [A9C]ext). The “single channel current i” value in assay [2] (100 μM [A9C]ext) is recorded as 0.22 ± 0.01 pA; in assay [2] (1000 μM [A9C]ext), 0.23 ± 0.02 pA; in assay [3] (single value from simultaneous fit in absence and presence of [A9C]ext), 0.27 ± 0.04 pA. For the same molecule, the “I a/I 0 (current activation)” value in assay [4] (3000 μM extracellular A9C, outside-out patches) was 27 ± 4; in assay [4] (3000 μM intracellular A9C, inside-out patches) it was 1.3 ± 0.1.

Broadly, the Ki is a measure of affinity in units of concentration, obtained from inhibition or displacement.

(Values after publication PMC4728427, “Mechanism of allosteric activation of TMEM16A/ANO1 channels by a commonly used chloride channel blocker” (British Journal of Pharmacology, 2016).)
